Results taken from PMC8708872, “Discovery of a Novel Template, 7-Substituted 7-Deaza-4′-Thioadenosine Derivatives as Multi-Kinase Inhibitors” (Pharmaceuticals, 2021).

Assays:
[1] = test system: cancer cells; assay: Antiproliferative activity against cancer cells (six lines, SRB); format: cell-based; conditions: Homo sapiens; range over the six cancer cell lines of Table 1
Procedure: (§1) Human lung cancer cells (A549), colorectal cancer (HCT116) cells, breast cancer cells (MDA-MB-231), liver cancer cells (SK-HEP-1), and prostate cancer cells (PC-3) were purchased from the American Type Culture Collection (Manassas, VA, USA). Human gastric cancer cells (SNU-638) were purchased from the Korean Cell Line Bank (Seoul, Korea). Cells were cultured in medium (Dulbecco’s modified Eagle’s medium for MDA-MB-231 and SK-HEP-1 cells; Roswell Park Memorial Institute 1640 for A549, HCT116, SNU-638, PC-3 cells) supplemented with penicillin-streptomycin and 10% fetal bovine serum at 37 °C in a humidified incubator with 5% carbon dioxide. Cells were seeded at a density of 4–7 × 10^4 cells/mL in 96-well culture plates, and then treated with indicated compounds for 72 h. At the end of the experiment, cells were fixed with 10% trichloroacetic acid (TCA) solution and subjected to sulforhodamine B (SRB) assay to determine cell proliferation. The percentage of cell proliferation was calculated with the following formula:Cell proliferation (%) = 100 × [(A treated − A zero day)/(A control − A zero day)], where A is the average absorbance. The IC50 values were calculated through non-linear regression analysis using TableCurve 2D v5.01 (Systat Software Inc., San Jose, CA, USA). All experiments were performed in triplicate and data shown are representative of two or three independent experiments.

[2] = test system: human normal dermal fibroblast cells; assay: Antiproliferative activity against normal cells; format: cell-based; conditions: cultured human normal primary dermal fibroblast cells; read-out: IC50 growth inhibition, normal dermal fibroblast cells
[3] = biological target: T1, PIM1 (Homo sapiens, UniProt P11309); assay: Kinome scan; format: binding; conditions: 1000 nM
T1 construct: purchased Eurofins DiscoverX Corporation
Procedure: (§2) The kinome scan assays were carried out at Eurofins DiscoverX Corporation. For kinome scan profiling of compound 1g, it was screened at 1μM against 96 kinases (N = 2 independent experiments). The results for binding interactions are reported as % inhibition, where higher values indicate strong affinity; see the Supporting Information, Table S1 for full kinome profile.

[4] = biological target: T2, CDK3 (Homo sapiens, UniProt Q00526); assay: Kinome scan; format: binding; conditions: 1000 nM
T2 construct: purchased Eurofins DiscoverX Corporation
Procedure: as §2

[5] = biological target: T3, EGFR (Homo sapiens, UniProt P00533); assay: Kinome scan; format: binding; conditions: 1000 nM
T3 construct: purchased Eurofins DiscoverX Corporation
Procedure: as §2

[6] = biological target: T4, PIK3C2B (Homo sapiens, UniProt O00750); assay: Kinome scan; format: binding; conditions: 1000 nM
T4 construct: purchased Eurofins DiscoverX Corporation
Procedure: as §2

[7] = biological target: T5, RIOK2 (Homo sapiens, UniProt Q9BVS4); assay: Kinome scan; format: binding; conditions: 1000 nM
T5 construct: purchased Eurofins DiscoverX Corporation
Procedure: as §2

[8] = biological target: T6, TRKA (NTRK1) (Homo sapiens, UniProt P04629); assay: Kinome scan; format: binding
T6 construct: purchased Eurofins DiscoverX Corporation
T6 sequence (P04629 33-796): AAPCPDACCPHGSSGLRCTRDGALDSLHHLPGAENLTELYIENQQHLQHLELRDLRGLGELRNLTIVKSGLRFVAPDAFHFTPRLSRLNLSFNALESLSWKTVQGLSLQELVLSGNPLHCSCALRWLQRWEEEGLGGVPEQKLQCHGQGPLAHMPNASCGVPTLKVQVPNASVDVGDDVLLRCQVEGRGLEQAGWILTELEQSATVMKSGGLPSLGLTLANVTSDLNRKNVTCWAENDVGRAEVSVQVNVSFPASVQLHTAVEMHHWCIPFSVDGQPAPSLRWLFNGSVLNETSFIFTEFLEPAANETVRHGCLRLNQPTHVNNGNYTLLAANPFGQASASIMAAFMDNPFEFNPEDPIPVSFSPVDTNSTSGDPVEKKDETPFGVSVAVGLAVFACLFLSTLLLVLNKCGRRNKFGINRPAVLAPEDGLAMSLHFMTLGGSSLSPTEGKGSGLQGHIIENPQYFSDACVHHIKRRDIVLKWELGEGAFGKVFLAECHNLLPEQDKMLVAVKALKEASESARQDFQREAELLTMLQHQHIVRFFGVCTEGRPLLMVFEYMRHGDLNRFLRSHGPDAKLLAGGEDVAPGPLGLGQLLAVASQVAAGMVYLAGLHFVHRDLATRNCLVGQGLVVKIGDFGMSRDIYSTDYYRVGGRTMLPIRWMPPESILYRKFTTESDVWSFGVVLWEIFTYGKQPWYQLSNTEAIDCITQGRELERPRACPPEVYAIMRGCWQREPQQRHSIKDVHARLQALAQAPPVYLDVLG
Procedure: as §2

[9] = biological target: T7, ACVR1B (Homo sapiens, UniProt P36896); assay: Kinome scan; format: binding; conditions: 1000 nM
T7 construct: purchased Eurofins DiscoverX Corporation
Procedure: as §2

[10] = biological target: T8, MAP3K4 (Homo sapiens, UniProt Q9Y6R4); assay: Kinome scan; format: binding; conditions: 1000 nM
T8 construct: purchased Eurofins DiscoverX Corporation
Procedure: as §2

[11] = biological target: T9, RAF1 (Homo sapiens, UniProt P04049); assay: Kinome scan; format: binding; conditions: 1000 nM
T9 construct: purchased Eurofins DiscoverX Corporation
Procedure: as §2

[12] = biological target: T10, PIM3 (Homo sapiens, UniProt Q86V86); assay: Kinome scan; format: binding; conditions: 1000 nM
T10 construct: purchased Eurofins DiscoverX Corporation
Procedure: as §2

[13] = biological target: T11, PIK3CG (Homo sapiens, UniProt P48736); assay: Kinome scan; format: binding; conditions: 1000 nM
T11 construct: purchased Eurofins DiscoverX Corporation
Procedure: as §2

[14] = biological target: T12, CDK7 (Homo sapiens, UniProt P50613); assay: Kinome scan; format: binding; conditions: 1000 nM
T12 construct: purchased Eurofins DiscoverX Corporation
Procedure: as §2

[15] = biological target: T13, CSNK1G2 (Homo sapiens, UniProt P78368); assay: Kinome scan; format: binding; conditions: 1000 nM
T13 construct: purchased Eurofins DiscoverX Corporation
T13 sequence (P78368 whole entry): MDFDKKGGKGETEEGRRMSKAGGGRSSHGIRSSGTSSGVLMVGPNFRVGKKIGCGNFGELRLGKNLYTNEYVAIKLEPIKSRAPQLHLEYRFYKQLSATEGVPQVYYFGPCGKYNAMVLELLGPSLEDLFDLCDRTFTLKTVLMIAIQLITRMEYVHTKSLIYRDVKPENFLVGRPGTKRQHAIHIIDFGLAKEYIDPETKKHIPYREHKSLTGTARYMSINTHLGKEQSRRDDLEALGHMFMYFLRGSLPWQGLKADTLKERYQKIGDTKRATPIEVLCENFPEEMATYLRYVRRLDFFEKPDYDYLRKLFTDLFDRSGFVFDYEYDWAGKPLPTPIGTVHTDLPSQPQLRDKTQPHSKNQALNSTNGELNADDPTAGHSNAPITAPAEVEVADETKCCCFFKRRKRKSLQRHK
Procedure: as §2

[16] = biological target: T14, ADCK3 (Homo sapiens, UniProt Q8NI60); assay: Kinome scan; format: binding; conditions: 1000 nM
T14 construct: purchased Eurofins DiscoverX Corporation
T14 sequence (Q8NI60 163-647): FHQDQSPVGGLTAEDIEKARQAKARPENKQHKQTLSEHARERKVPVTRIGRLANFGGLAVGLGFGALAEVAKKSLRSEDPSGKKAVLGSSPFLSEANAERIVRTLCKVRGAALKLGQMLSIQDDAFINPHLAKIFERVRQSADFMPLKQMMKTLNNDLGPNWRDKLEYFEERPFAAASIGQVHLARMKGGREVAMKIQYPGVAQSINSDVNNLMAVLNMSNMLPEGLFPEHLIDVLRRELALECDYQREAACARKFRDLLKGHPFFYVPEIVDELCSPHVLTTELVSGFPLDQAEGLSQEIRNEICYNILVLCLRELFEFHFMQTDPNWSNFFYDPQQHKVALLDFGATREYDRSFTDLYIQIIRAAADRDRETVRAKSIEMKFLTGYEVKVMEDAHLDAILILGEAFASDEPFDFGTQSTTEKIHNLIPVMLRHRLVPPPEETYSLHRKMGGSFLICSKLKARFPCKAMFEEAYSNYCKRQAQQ
Procedure: as §2

[17] = biological target: T15, BTK (Homo sapiens, UniProt Q06187); assay: Kinome scan; format: binding; conditions: 1000 nM
T15 construct: purchased Eurofins DiscoverX Corporation
Procedure: as §2

[18] = biological target: T16, MKNK1 (Homo sapiens, UniProt Q9BUB5); assay: Kinome scan; format: binding; conditions: 1000 nM
T16 construct: purchased Eurofins DiscoverX Corporation
Procedure: as §2

[19] = biological target: T17, SRPK3 (Homo sapiens, UniProt Q9UPE1); assay: Kinome scan; format: binding; conditions: 1000 nM
T17 construct: purchased Eurofins DiscoverX Corporation
T17 sequence (Q9UPE1 whole entry): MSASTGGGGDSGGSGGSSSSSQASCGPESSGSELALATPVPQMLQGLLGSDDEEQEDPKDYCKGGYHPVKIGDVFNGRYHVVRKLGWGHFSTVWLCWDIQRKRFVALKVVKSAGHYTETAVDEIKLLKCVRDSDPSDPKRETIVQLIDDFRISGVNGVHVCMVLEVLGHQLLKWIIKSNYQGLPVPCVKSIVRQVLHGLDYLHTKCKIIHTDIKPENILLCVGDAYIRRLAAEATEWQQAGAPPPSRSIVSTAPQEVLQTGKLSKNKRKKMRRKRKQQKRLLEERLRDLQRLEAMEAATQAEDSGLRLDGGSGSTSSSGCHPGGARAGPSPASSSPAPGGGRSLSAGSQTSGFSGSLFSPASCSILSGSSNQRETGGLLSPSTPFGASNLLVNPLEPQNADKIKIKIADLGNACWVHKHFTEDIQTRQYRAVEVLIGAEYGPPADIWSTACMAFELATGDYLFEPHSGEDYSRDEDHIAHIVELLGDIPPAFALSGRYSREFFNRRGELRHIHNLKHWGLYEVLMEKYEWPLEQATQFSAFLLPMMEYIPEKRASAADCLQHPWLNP
Procedure: as §2

[20] = biological target: T18, ABL1-nonphosphorylated (Homo sapiens, UniProt P00519); assay: Kinome scan; format: binding; conditions: 1000 nM
T18 construct: purchased Eurofins DiscoverX Corporation
T18 sequence (P00519 whole entry): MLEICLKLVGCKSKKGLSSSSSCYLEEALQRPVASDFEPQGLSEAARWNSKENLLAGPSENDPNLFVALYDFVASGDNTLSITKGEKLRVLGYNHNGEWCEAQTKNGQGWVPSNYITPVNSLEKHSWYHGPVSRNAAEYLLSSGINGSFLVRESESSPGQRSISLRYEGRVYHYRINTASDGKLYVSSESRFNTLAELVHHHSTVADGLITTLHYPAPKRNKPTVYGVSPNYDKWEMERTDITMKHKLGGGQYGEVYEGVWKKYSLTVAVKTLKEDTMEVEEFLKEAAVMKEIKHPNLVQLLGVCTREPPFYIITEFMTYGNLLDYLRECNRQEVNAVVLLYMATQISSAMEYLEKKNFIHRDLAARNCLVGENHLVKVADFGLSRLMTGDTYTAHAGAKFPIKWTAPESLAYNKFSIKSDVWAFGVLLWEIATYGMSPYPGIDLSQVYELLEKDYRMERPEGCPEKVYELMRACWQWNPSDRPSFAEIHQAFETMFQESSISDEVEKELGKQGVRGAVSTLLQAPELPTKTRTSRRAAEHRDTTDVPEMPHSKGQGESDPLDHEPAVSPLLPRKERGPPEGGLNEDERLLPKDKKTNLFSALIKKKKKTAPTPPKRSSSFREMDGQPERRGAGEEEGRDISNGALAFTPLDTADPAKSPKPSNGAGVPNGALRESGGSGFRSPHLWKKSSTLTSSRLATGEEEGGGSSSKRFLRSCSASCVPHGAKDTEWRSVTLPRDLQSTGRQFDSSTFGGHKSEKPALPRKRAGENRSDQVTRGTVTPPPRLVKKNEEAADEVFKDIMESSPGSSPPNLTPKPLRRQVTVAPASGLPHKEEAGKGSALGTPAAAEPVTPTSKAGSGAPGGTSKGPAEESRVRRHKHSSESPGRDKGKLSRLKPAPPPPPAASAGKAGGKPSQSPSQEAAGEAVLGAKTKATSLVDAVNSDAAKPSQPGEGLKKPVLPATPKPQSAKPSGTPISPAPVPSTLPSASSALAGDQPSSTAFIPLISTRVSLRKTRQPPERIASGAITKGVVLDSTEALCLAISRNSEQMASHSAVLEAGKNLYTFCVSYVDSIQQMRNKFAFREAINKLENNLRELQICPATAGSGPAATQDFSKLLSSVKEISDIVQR
Procedure: as §2

[21] = biological target: T19, MLK1 (Homo sapiens, UniProt P80192); assay: Kinome scan; format: binding; conditions: 1000 nM
T19 construct: purchased Eurofins DiscoverX Corporation
Procedure: as §2

[22] = biological target: T20, TIE2 (Homo sapiens, UniProt Q02763); assay: Kinome scan; format: binding; conditions: 1000 nM
T20 construct: purchased Eurofins DiscoverX Corporation
Procedure: as §2

[23] = biological target: T21, PLK3 (Homo sapiens, UniProt Q9H4B4); assay: Kinome scan; format: binding; conditions: 1000 nM
T21 construct: purchased Eurofins DiscoverX Corporation
Procedure: as §2

[24] = biological target: T22, DYRK1B (Homo sapiens, UniProt Q9Y463); assay: Kinome scan; format: binding
T22 construct: purchased Eurofins DiscoverX Corporation
T22 sequence (Q9Y463 whole entry): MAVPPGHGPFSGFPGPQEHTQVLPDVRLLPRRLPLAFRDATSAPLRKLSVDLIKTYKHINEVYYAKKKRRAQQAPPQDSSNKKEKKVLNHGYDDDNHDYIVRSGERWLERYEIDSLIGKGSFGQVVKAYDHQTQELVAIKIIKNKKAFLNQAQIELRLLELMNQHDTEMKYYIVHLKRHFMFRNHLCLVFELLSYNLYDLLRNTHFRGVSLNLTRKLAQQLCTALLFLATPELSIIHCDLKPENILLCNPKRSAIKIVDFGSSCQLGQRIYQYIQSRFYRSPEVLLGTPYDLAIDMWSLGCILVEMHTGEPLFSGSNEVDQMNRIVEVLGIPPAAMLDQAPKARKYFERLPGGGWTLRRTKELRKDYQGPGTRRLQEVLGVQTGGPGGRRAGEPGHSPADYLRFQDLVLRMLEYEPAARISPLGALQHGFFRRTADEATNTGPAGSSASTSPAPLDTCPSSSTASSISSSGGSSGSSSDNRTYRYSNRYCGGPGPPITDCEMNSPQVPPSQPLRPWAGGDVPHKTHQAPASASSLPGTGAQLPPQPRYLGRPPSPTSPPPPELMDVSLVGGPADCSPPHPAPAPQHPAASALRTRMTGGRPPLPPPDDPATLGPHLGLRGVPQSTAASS
Procedure: as §2

[25] = test system: ACHN; assay: Antiproliferative activity against ACHN; format: cell-based; conditions: Homo sapiens, renal cancer cell line expressing CK1δ and DYRK2, read-out: IC50 cell growth of ACHN
[26] = biological target: T22, DYRK1B; assay: Kinase inhibition profile, KINOMEscan 11-point dose response; format: binding
[27] = test system: A549; assay: SRB cell proliferation inhibition assay; format: cell-based; conditions: human lung cancer cells, 72 h
Procedure: as §1

[28] = test system: SK-HEP-1; assay: SRB cell proliferation inhibition assay; format: cell-based; conditions: SK-HEP1, human liver cancer cells, 72 h
Procedure: as §1

[29] = test system: PC-3; assay: SRB cell proliferation inhibition assay; format: cell-based; conditions: human prostate cancer cells, 72 h
Procedure: as §1

[30] = test system: MDA-MB-231; assay: SRB cell proliferation inhibition assay; format: cell-based; conditions: human breast cancer cells, 72 h
Procedure: as §1

[31] = test system: SNU638; assay: SRB cell proliferation inhibition assay; format: cell-based; conditions: SNU-638, human stomach cancer cells, 72 h
Procedure: as §1

[32] = test system: HCT116; assay: SRB cell proliferation inhibition assay; format: cell-based; conditions: HCT-116, human colon cancer cells, 72 h
Procedure: as §1

[33] = biological target: T23, CK1δ (Homo sapiens, UniProt P48730); assay: Kinase inhibition profile, KINOMEscan 11-point dose response; format: binding
T23 construct: purchased Eurofins DiscoverX Corporation
T23 sequence (P48730 whole entry): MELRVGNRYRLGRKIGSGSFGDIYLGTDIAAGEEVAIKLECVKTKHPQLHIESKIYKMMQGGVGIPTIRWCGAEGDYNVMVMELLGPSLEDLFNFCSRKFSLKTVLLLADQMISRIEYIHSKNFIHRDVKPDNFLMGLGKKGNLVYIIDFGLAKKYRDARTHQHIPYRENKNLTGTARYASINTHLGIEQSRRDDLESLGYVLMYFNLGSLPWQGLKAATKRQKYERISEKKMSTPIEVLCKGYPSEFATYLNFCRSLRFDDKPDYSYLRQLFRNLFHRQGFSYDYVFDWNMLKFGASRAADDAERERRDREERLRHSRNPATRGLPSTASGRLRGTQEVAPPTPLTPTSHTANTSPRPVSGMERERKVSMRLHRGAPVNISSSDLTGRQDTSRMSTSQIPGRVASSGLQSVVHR

[34] = 11-point 3-fold serial dilution

- IC50 [1]: 4 to 60 nM
- inhibition at 1 µM [3]: 37%
- inhibition at 1 µM [4]: 18%
- inhibition at 1 µM [5]: 0%
- inhibition at 1 µM [6]: 1%
- inhibition at 1 µM [7]: 0%
- remaining binding at 1 µM ([8]; 1 μM): < 20%
- inhibition at 1 µM ([8]; 1000 nM, TRKA (NTRK1)): 95.1%
- inhibition at 1 µM [9]: 29%
- inhibition at 1 µM [10]: 29%
- inhibition at 1 µM [11]: 8%
- inhibition at 1 µM [12]: 25%
- inhibition at 1 µM [13]: 0%
- inhibition at 1 µM [14]: 52.3%
- inhibition at 1 µM [15]: 54%
- inhibition at 1 µM [16]: 8%
- inhibition at 1 µM [17]: 0%
- inhibition at 1 µM [18]: 0%
- inhibition at 1 µM [19]: 6%
- inhibition at 1 µM [20]: 39%
- inhibition at 1 µM [21]: 7%
- inhibition at 1 µM [22]: 6%
- inhibition at 1 µM [23]: 0%
- remaining binding at 1 µM ([24]; 1 μM): < 20%
- inhibition at 1 µM ([24]; 1000 nM, DYRK1B): 83%
- IC50 [25]: ~40 nM
- IC50 [26, 34]: 33 nM
- Ki ([26]; by Cheng-Prusoff equation): 33 nM
- IC50 [27]: 60 nM
- IC50 [28]: 50 nM
- IC50 [29]: 4 nM
- IC50 [30]: 50 nM
- IC50 [31]: 30 nM
- IC50 [32]: 30 nM
- IC50 [33, 34]: 80 nM
- Ki ([33]; by Cheng-Prusoff equation): 80 nM
SMILES: C#Cc1cn([C@@H]2S[C@H](CO)[C@@H](O)[C@H]2O)c2ncnc(N)c12 [Compound 1g, (2R,3R,4S,5R)-2-(4-Amino-5-ethynyl-7H-pyrrolo[2,3-d]pyrimidin-7-yl)-5-(hydroxymethyl)tetrahydrothiophene-3,4-diol]
- IC50 [2]: 150 nM
